Source: patent publication US12077503B2, “Substituted cyclic amides and their use as herbicides” (FMC CORPORATION, priority 2015, dated 2024)

Experiments:
Type in all cases: in vivo
[1] = test system: ivy-leaved morning glory (Ipomoea hederacea); experiment: Test G Post-Emergence Protocol; details: Ipomoea, post-emergence, 312 h, read-out: Morningglory, Ivy-leaved damage rating; for pest or weed control at 15.625 g/ha: 15.625 g ai/ha, evaluated after 13 days (100=total damage to plant; 0=no damage to plant); for pest or weed control at 62.5 g/ha: 62.5 g ai/ha; for pest or weed control at 62.5 g/ha / pest or weed control at 250 g/ha: evaluated after 13 days, 100=total damage to plant, 0=no damage to plant; for pest or weed control at 250 g/ha: 250 g ai/ha
Procedure, shortened: (§1)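 Post-emergence herbicidal damage, scored visually 0–100 at 13 days. Application at 15.625, 62.5 or 250 g/ha onto 8-day-old plants grown under glasshouse control.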

[2] = test system: corn (Zea mays); experiment: Test G Post-Emergence Protocol; details: Zea mays, post-emergence, 312 h, read-out: Corn damage rating; for plant injury at 15.625 g/ha: 15.625 g ai/ha, evaluated after 13 days (100=total damage to plant; 0=no damage to plant); for plant injury at 62.5 g/ha: 62.5 g ai/ha; for plant injury at 62.5 g/ha / plant injury at 250 g/ha: evaluated after 13 days, 100=total damage to plant, 0=no damage to plant; for plant injury at 250 g/ha: 250 g ai/ha
Procedure, shortened: as §1

[3] = test system: redroot pigweed (Amaranthus retroflexus); experiment: Test G Post-Emergence Protocol; details: Amaranthus retroflexus, post-emergence, 312 h, read-out: Pigweed, Redroot damage rating; for pest or weed control at 15.625 g/ha: 15.625 g ai/ha, evaluated after 13 days (100=total damage to plant; 0=no damage to plant); for pest or weed control at 62.5 g/ha: 62.5 g ai/ha; for pest or weed control at 62.5 g/ha / pest or weed control at 250 g/ha: evaluated after 13 days, 100=total damage to plant, 0=no damage to plant; for pest or weed control at 250 g/ha: 250 g ai/ha
Procedure, shortened: as §1

[4] = test system: giant foxtail (Setaria faberi); experiment: Test G Post-Emergence Protocol; details: Setaria faberi, post-emergence, 312 h, read-out: Foxtail, Giant damage rating; for pest or weed control at 15.625 g/ha: 15.625 g ai/ha, evaluated after 13 days (100=total damage to plant; 0=no damage to plant); for pest or weed control at 62.5 g/ha: 62.5 g ai/ha; for pest or weed control at 62.5 g/ha / pest or weed control at 250 g/ha: evaluated after 13 days, 100=total damage to plant, 0=no damage to plant; for pest or weed control at 250 g/ha: 250 g ai/ha
Procedure, shortened: as §1

[5] = test system: velvetleaf (Abutilon theophrasti); experiment: Test G Post-Emergence Protocol; details: Abutilon theophrasti, post-emergence, 312 h, read-out: Velvetleaf damage rating; for pest or weed control at 15.625 g/ha: 15.625 g ai/ha, evaluated after 13 days (100=total damage to plant; 0=no damage to plant); for pest or weed control at 62.5 g/ha: 62.5 g ai/ha; for pest or weed control at 62.5 g/ha / pest or weed control at 250 g/ha: evaluated after 13 days, 100=total damage to plant, 0=no damage to plant; for pest or weed control at 250 g/ha: 250 g ai/ha
Procedure, shortened: as §1

[6] = test system: barnyardgrass (Echinochloa crus-galli); experiment: Test G Post-Emergence Protocol; details: Echinochloa crus-galli, post-emergence, 312 h, read-out: Barnyardgrass damage rating; for pest or weed control at 15.625 g/ha: 15.625 g ai/ha, evaluated after 13 days (100=total damage to plant; 0=no damage to plant); for pest or weed control at 62.5 g/ha: 62.5 g ai/ha; for pest or weed control at 62.5 g/ha / pest or weed control at 250 g/ha: evaluated after 13 days, 100=total damage to plant, 0=no damage to plant; for pest or weed control at 250 g/ha: 250 g ai/ha
Procedure, shortened: as §1

[7] = test system: ivy-leaved morning glory (Ipomoea hederacea); experiment: Test G Pre-Emergence Protocol; details: Ipomoea, pre-emergence, 312 h, evaluated after 13 days; for pest or weed control at 15.625 g/ha: 15.625 g ai/ha; for pest or weed control at 15.625 g/ha / pest or weed control at 250 g/ha: read-out: Morningglory, Ivy-leaved damage rating (100=total damage to plant; 0=no damage to plant); for pest or weed control at 62.5 g/ha: 62.5 g ai/ha, 100=total damage to plant, 0=no damage to plant, read-out: Morningglory, Ivy-leaved damage rating; for pest or weed control at 250 g/ha: 250 g ai/ha
Procedure, shortened: (§2)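 Test compound in 0.5% Tween 20 acetone/water (50:50) was applied at three rates (15.625, 62.5, 250 g/ha) to soil sown one day earlier. After 13 days plants were scored for injury, where 0 means unaffected and 100 means completely damaged.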

[8] = test system: corn (Zea mays); experiment: Test G Pre-Emergence Protocol; details: Zea mays, pre-emergence, 312 h, evaluated after 13 days; for plant injury at 15.625 g/ha: 15.625 g ai/ha; for plant injury at 15.625 g/ha / plant injury at 250 g/ha: read-out: Corn damage rating (100=total damage to plant; 0=no damage to plant); for plant injury at 62.5 g/ha: 62.5 g ai/ha, 100=total damage to plant, 0=no damage to plant, read-out: Corn damage rating; for plant injury at 250 g/ha: 250 g ai/ha
Procedure, shortened: as §2

[9] = test system: redroot pigweed (Amaranthus retroflexus); experiment: Test G Pre-Emergence Protocol; details: Amaranthus retroflexus, pre-emergence, 312 h, evaluated after 13 days; for pest or weed control at 15.625 g/ha: 15.625 g ai/ha; for pest or weed control at 15.625 g/ha / pest or weed control at 250 g/ha: read-out: Pigweed, Redroot damage rating (100=total damage to plant; 0=no damage to plant); for pest or weed control at 62.5 g/ha: 62.5 g ai/ha, 100=total damage to plant, 0=no damage to plant, read-out: Pigweed, Redroot damage rating; for pest or weed control at 250 g/ha: 250 g ai/ha
Procedure, shortened: as §2

[10] = test system: giant foxtail (Setaria faberi); experiment: Test G Pre-Emergence Protocol; details: Setaria faberi, pre-emergence, 312 h, evaluated after 13 days; for pest or weed control at 15.625 g/ha: 15.625 g ai/ha; for pest or weed control at 15.625 g/ha / pest or weed control at 250 g/ha: read-out: Foxtail, Giant damage rating (100=total damage to plant; 0=no damage to plant); for pest or weed control at 62.5 g/ha: 62.5 g ai/ha, 100=total damage to plant, 0=no damage to plant, read-out: Foxtail, Giant damage rating; for pest or weed control at 250 g/ha: 250 g ai/ha
Procedure, shortened: as §2

[11] = test system: velvetleaf (Abutilon theophrasti); experiment: Test G Pre-Emergence Protocol; details: Abutilon theophrasti, pre-emergence, 312 h, evaluated after 13 days; for pest or weed control at 15.625 g/ha: 15.625 g ai/ha; for pest or weed control at 15.625 g/ha / pest or weed control at 250 g/ha: read-out: Velvetleaf damage rating (100=total damage to plant; 0=no damage to plant); for pest or weed control at 62.5 g/ha: 62.5 g ai/ha, 100=total damage to plant, 0=no damage to plant, read-out: Velvetleaf damage rating; for pest or weed control at 250 g/ha: 250 g ai/ha
Procedure, shortened: as §2

[12] = test system: barnyardgrass (Echinochloa crus-galli); experiment: Test G Pre-Emergence Protocol; details: Echinochloa crus-galli, pre-emergence, 312 h, evaluated after 13 days; for pest or weed control at 15.625 g/ha: 15.625 g ai/ha; for pest or weed control at 15.625 g/ha / pest or weed control at 250 g/ha: read-out: Barnyardgrass damage rating (100=total damage to plant; 0=no damage to plant); for pest or weed control at 62.5 g/ha: 62.5 g ai/ha, 100=total damage to plant, 0=no damage to plant, read-out: Barnyardgrass damage rating; for pest or weed control at 250 g/ha: 250 g ai/ha
Procedure, shortened: as §2

Row | SMILES | pest or weed control at 15.625 g/ha [1] [%] | pest or weed control at 62.5 g/ha [1] [%] | pest or weed control at 250 g/ha [1] [%] | plant injury at 15.625 g/ha [2] [%] | plant injury at 62.5 g/ha [2] [%] | plant injury at 250 g/ha [2] [%] | pest or weed control at 15.625 g/ha [3] [%] | pest or weed control at 62.5 g/ha [3] [%] | pest or weed control at 250 g/ha [3] [%] | pest or weed control at 15.625 g/ha [4] [%] | pest or weed control at 62.5 g/ha [4] [%] | pest or weed control at 250 g/ha [4] [%] | pest or weed control at 15.625 g/ha [5] [%] | pest or weed control at 62.5 g/ha [5] [%] | pest or weed control at 250 g/ha [5] [%] | pest or weed control at 15.625 g/ha [6] [%] | pest or weed control at 62.5 g/ha [6] [%] | pest or weed control at 250 g/ha [6] [%] | pest or weed control at 15.625 g/ha [7] [%] | pest or weed control at 62.5 g/ha [7] [%] | further results
1 | CC1OC(=O)c2c(NC(=O)[C@H]3C(=O)N(C)C[C@@H]3c3ccc(C(F)(F)F)cc3)cccc21 (mixture of isomers) [Compound 1670] | 0 | 0 | 0 | 0 | 0 | 10 | 0 | 20 | 90 | 0 | 70 | 80 | 0 | 0 | 0 | 0 | 20 | 60 | 0 | 0 | pest or weed control at 250 g/ha [7]: 0%; plant injury at 15.625 g/ha [8]: 0%; plant injury at 62.5 g/ha [8]: 0%; plant injury at 250 g/ha [8]: 0%; pest or weed control at 15.625 g/ha [9]: 0%; pest or weed control at 62.5 g/ha [9]: 0%; pest or weed control at 250 g/ha [9]: 20%; pest or weed control at 15.625 g/ha [10]: 0%; pest or weed control at 62.5 g/ha [10]: 20%; pest or weed control at 250 g/ha [10]: 50%; pest or weed control at 15.625 g/ha [11]: 0%; pest or weed control at 62.5 g/ha [11]: 0%; pest or weed control at 250 g/ha [11]: 0%; pest or weed control at 15.625 g/ha [12]: 0%; pest or weed control at 62.5 g/ha [12]: 0%; pest or weed control at 250 g/ha [12]: 0%
2 | CN1CCCC(NC(=O)[C@H]2C(=O)N(C)C[C@@H]2c2ccc(C(F)(F)F)cc2)C1=O (mixture of isomers) [Compound 1674] | 0 | 0 | 0 | 0 | 0 | 0 | 0 | 0 | 0 | 0 | 0 | 20 | 0 | 0 | 0 | 0 | 0 | 0 | 0 | 0 | pest or weed control at 250 g/ha [7]: 0%; plant injury at 15.625 g/ha [8]: 0%; plant injury at 62.5 g/ha [8]: 0%; plant injury at 250 g/ha [8]: 0%; pest or weed control at 15.625 g/ha [9]: 0%; pest or weed control at 62.5 g/ha [9]: 0%; pest or weed control at 250 g/ha [9]: 0%; pest or weed control at 15.625 g/ha [10]: 0%; pest or weed control at 62.5 g/ha [10]: 0%; pest or weed control at 250 g/ha [10]: 0%; pest or weed control at 15.625 g/ha [11]: 0%; pest or weed control at 62.5 g/ha [11]: 0%; pest or weed control at 250 g/ha [11]: 0%; pest or weed control at 15.625 g/ha [12]: 0%; pest or weed control at 62.5 g/ha [12]: 0%; pest or weed control at 250 g/ha [12]: 0%
3 | CC(O)c1ccccc1NC(=O)[C@H]1C(=O)N(C)C[C@@H]1c1cccc(C(F)(F)F)c1 (mixture of isomers) [Compound 1783] | 10 | 60 | 70 | 70 | 80 | 80 | 0 | 0 | 20 | 80 | 80 | 80 | 0 | 20 | 50 | 70 | 80 | 80 | 10 | 10 | pest or weed control at 250 g/ha [7]: 40%; plant injury at 15.625 g/ha [8]: 50%; plant injury at 62.5 g/ha [8]: 80%; plant injury at 250 g/ha [8]: 90%; pest or weed control at 15.625 g/ha [9]: 0%; pest or weed control at 62.5 g/ha [9]: 0%; pest or weed control at 250 g/ha [9]: 40%; pest or weed control at 15.625 g/ha [10]: 80%; pest or weed control at 62.5 g/ha [10]: 90%; pest or weed control at 250 g/ha [10]: 90%; pest or weed control at 15.625 g/ha [11]: 0%; pest or weed control at 62.5 g/ha [11]: 10%; pest or weed control at 250 g/ha [11]: 70%; pest or weed control at 15.625 g/ha [12]: 50%; pest or weed control at 62.5 g/ha [12]: 90%; pest or weed control at 250 g/ha [12]: 90%
